Among the data in patent US20120184542A1, “PYRIDO PYRIMIDINES” (priority 2011, published 2012) are IC50 and inhibition values, retold here.

The IC50 is the point on the concentration scale where inhibition reaches its midpoint.

Some results are limits rather than exact numbers.

In test [1] the target is T1, Human DYRK1B (Homo sapiens, UniProt Q9Y463).
T1 construct: purchased Invitrogen PR8350B (former PV4649)
The experiment in a line: DYRK1B Kinase TR-FRET (IMAP-Tb) Assay. In kind it is biochemical. The following applies: for IC50: TR-FRET (IMAP-Tb), ATP 70 μM, 37° C. 60 minutes, read-out: Enzyme IC50 (μM) DYRK1B; for inhibition at 10 µM: read-out: % inhibition of DYRK1B at 10 μM test compound concentration. (In general: Time-resolved FRET reads energy transfer from a long-lived donor to a nearby acceptor.)

For test [2], the target named is T2, Human DYRK1A (Homo sapiens, UniProt Q13627).
T2 construct: purchased Invitrogen PV3997
Nature of the test: DYRK1A Kinase TR-FRET (IMAP-Tb) Assay. In kind it is biochemical. The settings on record: TR-FRET (IMAP-Tb); ATP 70 μM; 37° C. 60 minutes; read-out: Enzyme IC50 (μM) DYRK1A. From the text:
The kinase TR-FRET (IMAP-Tb) assay uses a fluorescence labeled substrate peptide in the kinase reaction. Upon phosphorylation by the kinase, phosphopeptide is produced, which will be detected by the binding solution provided in IMAP TR-FRET binding kit. After the completion of the kinase reaction, the reaction will be stopped by adding the binding solution containing terbium tracer. This tracer is immobilized on the surface of the IMAP beads, which also contain metal ions on the beads that bind to the phospho-groups of the products. Thus the phosphorylated product of the reaction can enter into close proximity to the tracer, producing resonance energy transfer. Due to the long lifetime of terbium (Tb) fluorescence the detection can be run in time resolved mode, which virtually eliminates fluorescence interference from assay components or compounds.
The TR-FRET signal measurement from this assay, given as an IC50 measurement, is a measure of a test compound's ability to interfere with the phosphorylation of the peptide substrate, that is it inhibits the phosphorylation of the substrate peptide by DYRK1A, and is thus a measure of the test compound's ability to inhibit the activity of DYRK1A.
• 1. Human DYRK1A: from Invitrogen. Part #PV3997 • 2. Substrate Peptide: […] • 3. IMAP TR-FRET IPP Explorer Kit: from Molecular Devices. Part #R8157 • 4. Kinase Assay Buffer (KAB): 10 mM HEPES pH 7.0, 50 mM NaCl, 5 mM MgCl2, 1 mM DTT, 1 mM NaVO4, 200 μg/mL BSA (0.02%) • 5. Assay Plate: Remp polypropylene clear 384-well microplate. […] Detection Plate: Costa black 384-well microplate.
• 1. Transfer 1.5 μL of 20× compound solution to each well of an assay plate. • 2. Add to each well 22.5 μL of KAB Buffer. • 3. Add to each well 3 μL of the solution of DYRK1A and ATP. […] Add to each well 3 μL of the substrate peptide. The assay concentration is 1.0 μM • 5. Incubate the assay plates at 37° C. for 60 minutes. • 6. Add 18 μL of Detection Solution (1:800 diluted Progress bead stock, 1:400 diluted Tb stock, 80% Buffer A, and 20% Buffer B) into each well of detection plates. • 7. Transfer 6 μL of assay solution from the assay plate to the detection plate. • 8. Shake detection plates for 30 minutes. • 9. Read plates in Envision with wavelength set at excitation 340 nm for Tb, emission 490 nm, and […].

T1 sequence (Q9Y463 whole entry): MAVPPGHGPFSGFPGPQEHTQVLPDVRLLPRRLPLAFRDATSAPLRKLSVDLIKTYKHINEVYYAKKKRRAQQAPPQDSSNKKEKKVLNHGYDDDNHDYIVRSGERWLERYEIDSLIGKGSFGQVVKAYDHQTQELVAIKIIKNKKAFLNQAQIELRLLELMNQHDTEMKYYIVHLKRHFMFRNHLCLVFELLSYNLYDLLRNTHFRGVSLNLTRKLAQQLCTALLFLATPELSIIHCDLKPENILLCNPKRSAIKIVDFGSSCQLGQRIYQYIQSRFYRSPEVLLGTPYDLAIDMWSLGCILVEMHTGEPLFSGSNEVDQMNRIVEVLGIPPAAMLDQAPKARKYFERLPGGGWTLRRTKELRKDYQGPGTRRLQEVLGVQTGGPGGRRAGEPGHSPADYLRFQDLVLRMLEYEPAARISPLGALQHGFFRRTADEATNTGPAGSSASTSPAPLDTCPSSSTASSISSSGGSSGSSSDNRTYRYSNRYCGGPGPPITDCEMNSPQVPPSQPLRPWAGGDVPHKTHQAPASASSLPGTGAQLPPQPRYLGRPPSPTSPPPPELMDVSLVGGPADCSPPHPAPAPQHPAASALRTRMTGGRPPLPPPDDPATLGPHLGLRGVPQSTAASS

With `CCOC(=O)c1ccc(Cl)c(NC(=O)c2cc3cnc(OC)nc3[nH]c2=O)c1` [Example 82, 4-Chloro-3-[(2-methoxy-7-oxo-7,8-dihydro-pyrido[2,3-d]pyrimidine-6-carbonyl)-amino]-benzoic acid ethyl ester], the IC50 worked out at 1.11 µM in test [1] and 0.463 µM in test [2].

With `O=C(NCc1cccc(Cl)c1)c1ccc(Cl)c(NC(=O)c2cc3cnc(N4CCC(O)CC4)nc3[nH]c2=O)c1` [Example 92, 2-(4-Hydroxy-piperidin-1-yl)-7-oxo-7,8-dihydro-pyrido[2,3-d]pyrimidine-6-carboxylic acid [2-chloro-5-(3-chloro-benzylcarbamoyl)-phenyl]-amide], the IC50 came out at 0.035 µM in test [1] and 0.0202 µM in test [2].

On to `CC(C)(C)CNC(=O)c1ccc(Cl)c(NC(=O)c2cc3cnc(N4CCOCC4)nc3[nH]c2=O)c1` [Example 142, 2-Morpholin-4-yl-7-oxo-7,8-dihydro-pyrido[2,3-d]pyrimidine-6-carboxylic acid [2-chloro-5-(2,2-dimethyl-propylcarbamoyl)-phenyl]-amide], for which the inhibition at 10 µM in test [1] is 44%. Also, the IC50 in test [2] was determined as 2.43 µM.

As to `O=C(NCc1cccc(Cl)c1)c1cc(NC(=O)c2cc3cnc(N4CCOCC4)nc3[nH]c2=O)c(Cl)cc1F` [Example 144, 2-Morpholin-4-yl-7-oxo-7,8-dihydro-pyrido[2,3-d]pyrimidine-6-carboxylic acid [2-chloro-5-(3-chloro-benzylcarbamoyl)-4-fluoro-phenyl]-amide], the inhibition at 10 µM in test [1] worked out at 23%. In addition, in test [2], the IC50 was determined as 0.205 µM.

For `CC(C)(O)CNc1ncc2cc(C(=O)Nc3cc(C(=O)NC(CO)c4ccccc4)ccc3Cl)c(=O)[nH]c2n1` (stereo not drawn) [Example 153, N-(2-Chloro-5-(2-hydroxy-1-phenylethylcarbamoyl)phenyl)-2-(2-hydroxy-2-methylpropylamino)-7-oxo-7,8-dihydropyrido[2,3-d]pyrimidine-6-carboxamide], the IC50 in test [1] turned out to be 0.185 µM; in test [2], 0.0931 µM.

`CC(C)(O)CNc1ncc2cc(C(=O)Nc3cc(C(=O)NC(CCO)c4ccccc4)ccc3Cl)c(=O)[nH]c2n1` (stereo not drawn) [Example 154, N-(2-Chloro-5-(3-hydroxy-1-phenylpropylcarbamoyl)phenyl)-2-(2-hydroxy-2-methylpropylamino)-7-oxo-7,8-dihydropyrido[2,3-d]pyrimidine-6-carboxamide]: the 50% inhibitory concentration (IC50) in test [1] is 0.078 µM; in test [2] it was 0.075 µM.

Regarding `CN(C)c1ncc2cc(C(=O)Nc3cc(C(=O)NCc4cccc(Cl)c4)ccc3Cl)c(=O)[nH]c2n1` [Example 155, N-(2-Chloro-5-(3-chlorobenzylcarbamoyl)phenyl)-2-(dimethylamino)-7-oxo-7,8-dihydropyrido[2,3-d]pyrimidine-6-carboxamide], the half-inhibitory concentration (IC50) in test [1] was found to be 0.0923 µM; in test [2] it was 0.0485 µM.

As to `C[C@@H](NC(=O)c1ccc(Cl)c(NC(=O)c2cc3cnc(N4CCOCC4)nc3[nH]c2=O)c1)c1ccccc1` [Example 156, 2-Morpholin-4-yl-7-oxo-7,8-dihydro-pyrido[2,3-d]pyrimidine-6-carboxylic acid [2-chloro-5-((R)-1-phenyl-ethylcarbamoyl)-phenyl]-amide], the IC50 came to 0.586 µM in test [1] and 0.189 µM in test [2].

Consider `C[C@H](NC(=O)c1ccc(Cl)c(NC(=O)c2cc3cnc(N4CCOCC4)nc3[nH]c2=O)c1)c1ccccc1` [Example 157, 2-Morpholin-4-yl-7-oxo-7,8-dihydro-pyrido[2,3-d]pyrimidine-6-carboxylic acid [2-chloro-5-((S)-1-phenyl-ethylcarbamoyl)-phenyl]-amide], for which the IC50 in test [1] and in test [2] was over 10 µM each time.

With `COc1ncc2cc(C(=O)Nc3cc(C(=O)N[C@@H](CCO)c4ccccc4)ccc3Cl)c(=O)[nH]c2n1` [Example 159, (S)—N-(2-Chloro-5-(3-hydroxy-1-phenylpropylcarbamoyl)phenyl)-2-methoxy-7-oxo-7,8-dihydropyrido[2,3-d]pyrimidine-6-carboxamide], in test [1], the inhibition at 10 µM was 22%. In addition, the IC50 in test [2] came to 3.88 µM.

Consider `C[C@H](NC(=O)c1ccc(Cl)c(NC(=O)c2cc3cnc(N4CCN(C)CC4)nc3[nH]c2=O)c1)c1ccccc1` [Example 173, 2-(4-Methyl-piperazin-1-yl)-7-oxo-7,8-dihydro-pyrido[2,3-d]pyrimidine-6-carboxylic acid [2-chloro-5-((S)-1-phenyl-ethylcarbamoyl)-phenyl]-amide], for which the IC50 in test [1] and in test [2] was over 10 µM in each case.

Take `CN1CCN(c2ncc3cc(C(=O)Nc4cc(C(=O)NCc5cccc(F)c5)ccc4Cl)c(=O)[nH]c3n2)CC1` [Example 177, 2-(4-Methyl-piperazin-1-yl)-7-oxo-7,8-dihydro-pyrido[2,3-d]pyrimidine-6-carboxylic acid [2-chloro-5-(3-fluoro-benzylcarbamoyl)-phenyl]amide]: the IC50 in test [1] turned out to be 0.176 µM; in test [2], 0.0715 µM.

As to `CN1CCN(c2ncc3cc(C(=O)Nc4cc(C(=O)NCc5cc(F)ccc5F)ccc4Cl)c(=O)[nH]c3n2)CC1` [Example 178, 2-(4-Methyl-piperazin-1-yl)-7-oxo-7,8-dihydro-pyrido[2,3-d]pyrimidine-6-carboxylic acid [2-chloro-5-(2,5-difluoro-benzylcarbamoyl)-phenyl]amide], the IC50 in test [1] worked out at 0.356 µM; in test [2], 0.0748 µM.

`CN1CCN(c2ncc3cc(C(=O)Nc4cc(C(=O)N[C@H](CN)Cc5cccc(F)c5)ccc4Cl)c(=O)[nH]c3n2)CC1` [Example 187, 2-(4-Methyl-piperazin-1-yl)-7-oxo-7,8-dihydro-pyrido[2,3-d]pyrimidine-6-carboxylic acid {5-[(S)-1-aminomethyl-2-(3-fluoro-phenyl)-ethylcarbamoyl]-2-chloro-phenyl}-amide]: the IC50 in test [1] was found to be 0.202 µM; in test [2], 0.13 µM.

As to `COc1ncc2cc(C(=O)Nc3cc(C(=O)NC(CN)C4CCCCC4)ccc3Cl)c(=O)[nH]c2n1` (stereo not drawn) [Example 192, N-(5-(2-Amino-1-cyclohexylethylcarbamoyl)-2-chlorophenyl)-2-methoxy-7-oxo-7,8-dihydropyrido[2,3-d]pyrimidine-6-carboxamide], the IC50 came to 0.047 µM in test [1] and 0.036 µM in test [2].

As to `COc1ncc2cc(C(=O)Nc3cc(C(=O)NC(c4ccccc4)C(F)(F)CN)ccc3Cl)c(=O)[nH]c2n1` (stereo not drawn) [Example 196, N-(5-(3-amino-2,2-difluoro-1-phenylpropylcarbamoyl)-2-chlorophenyl)-2-methoxy-7-oxo-7,8-dihydropyrido[2,3-d]pyrimidine-6-carboxamide], the IC50 in test [1] came to 0.339 µM; in test [2] it was 0.175 µM.

Consider `COc1ncc2cc(C(=O)Nc3cc(C(=O)NC(CCN)C4CCCC4)ccc3Cl)c(=O)[nH]c2n1` (stereo not drawn) [Example 198, 2-Methoxy-7-oxo-7,8-dihydro-pyrido[2,3-d]pyrimidine-6-carboxylic acid [5-(3-amino-1-cyclopentyl-propylcarbamoyl)-2-chloro-phenyl]-amide], for which the IC50 in test [1] came to 0.36 µM; in test [2] it was 0.47 µM.

With `COc1ncc2cc(C(=O)Nc3cc(C(=O)NC(CN)C4CCCC4)ccc3Cl)c(=O)[nH]c2n1` (stereo not drawn) [Example 200, 2-Methoxy-7-oxo-7,8-dihydro-pyrido[2,3-d]pyrimidine-6-carboxylic acid [5-(2-amino-1-cyclopentyl-ethylcarbamoyl)-2-chloro-phenyl]-amide], the IC50 in test [1] is 0.47 µM; in test [2] it was 0.54 µM.
